Data as given in patent US20090036507A1, “BIS (CYANOPHENYL) METHYL-TRIAZOLE FOR USE IN PREVENTION OF BREAST CANCER” (priority 2001, published 2009).

Legend:
estradiol = experiment: Serum estradiol levels (double antibody radioimmunoassay); assay type: in vivo, mice; details: for circulating estrogen (estradiol) level: control 12.5 pg/ml, no significant difference
Description: (§1) Aged (about 16-20 weeks old) virgin aromatase transgenic females were used to investigate the effect of the aromatase inhibitor, COMPOUND I, as a chemopreventive agent against the preneoplastic and neoplastic changes induced in mammary glands of these mice. In this study, age-matched transgenic females were divided into four groups, one group (n=10) served as control group, the other groups received daily s.c. injection of COMPOUND I and three different doses; 0.25, 05, 1.0 μg COMPOUND I per animal in 100 μl of 0.3% hydroxy propyl cellulose (in phospate buffered saline). Control animals were given s.c. injection of vehicle. COMPOUND I was a gift from Drs. Ajay Bhatnagar and Dean Evans of Novartis Pharma (Basel, Switzerland). At the end of the 6-week treatment, mammary glands were removed and one gland each was used for histological analysis. All other glands were pooled then used for biochemical analysis as described below. Along with the mammary glands, uterus and ovaries was collected for biochemical and histological analyses.
Blood from both control and COMPOUND I-treated groups was collected by cardiac puncture directly before harvesting tissues. Serum concentrations of estradiol were measured by double antibody radioimmunoassay using commercially available reagents (Diagnostic Products Corp., Los Angeles, Calif.). […] Assaying increasing volumes of serum from 50 to 200 μl produced a displacement line parallel to the standard curve. Intra-assay and inter assay coefficients of variation averaged <10.0 and 6.7%, respectively. FSH levels were measured using a standard double antibody radioimmunoassay. Purified FSH obtained from NIH hormone resource was used as a standard. Differences in mean estradiol or FSH levels were compared, and significance was determined using paired Student's t-test.

[1] = system: estrogen receptor (ER), progesterone receptor (PR), cyclin D1 and proliferating cell nuclear antigen (PCNA); experiment: Western blot of ER, PR, cyclin D1 and PCNA protein levels in mammary tissues; assay type: in vivo, mice; details: 5 μg
Description: as §1
(§2) To isolate proteins from mammary gland and uterine tissue of both control and COMPOUND I-treated aromatase animals, the tissues were homogenized in lysis buffer. Equal amounts (60 ug) of protein from each sample was separated on a denaturing polyacrylamide gel and transferred to a nylon membrane. […]

[2] = system: aromatase transgenic mice; experiment: Effect on uterus and ovary histo-morphological features / normal endocrinological functions; assay type: in vivo
Description: The skin containing the mammary fat pads was fixed in 10% neutral buffered formalin for at least 24 h. The mammary glands were then dissected free from skin and processed for histological examinations (D. Medina, Preneoplastic lesions in mouse mammary tumorigenesis, Methods Cancer Res. 7 (1973) 3-53. 514). Routine section of mammary tissues, uterus and ovary were prepared after fixation by embedding in paraf.n, sectioning at 5 μM, and staining with H&E. To immunolocalize aromatase expression, 5 μM thick sections of aromatase and nontransgenic mammary gland tissue were used. After deparaffination and rehydration in xylene and ethanol, nonspecific sites were blocked by incubating with 1% normal goat serum in 0.05M Tris-HCl buffer. After decanting the reagents, the sections were covered with rabbit polyclonal antibody to rat aromatase synthetic peptide in 1:100 dilution (aromatase antibody was obtained from Dr. Evan Simpson, University of Texas Southwestern Medical Center, Dallas, Tex.; currently at Prince Henry's Institute, Clayton, Vic., Australia). The samples were incubated overnight at 4° C. in a humidied chamber. After three washings with 0.05M Tris-HCl buffer, the slides were incubated with alkaline phosphate conjugated secondary antibody for 30 min at room temperature and washings were repeated and sections were incubated with 1% fast red/naphthol AS phospate solution for 5 min. Sections were washed again and cover slipped and staining pattern was observed using light microscope.
Aged (about 16-20 weeks old) virgin aromatase transgenic females were used to investigate the effect of the aromatase inhibitor, COMPOUND I, as a chemopreventive agent against the preneoplastic and neoplastic changes induced in mammary glands of these mice. In this study, age-matched transgenic females were divided into four groups, one group (n=10) served as control group, the other groups received daily s.c. injection of COMPOUND I and three different doses; 0.25, 05, 1.0 μg COMPOUND I per animal in 100 μl of 0.3% hydroxy propyl cellulose (in phospate buffered saline). […]

[3] = system: aromatase transgenic mice; details: 5 μg/mouse/daily, previous studies; cited from earlier work
lactoferrin, ER, and PR = experiment: Western blot of lactoferrin, ER and PR protein levels in uterus tissue; assay type: in vivo, mice; details: 1.0 μg per day per animal
Description: as §1, §2

[4] = system: follicle stimulating hormone; experiment: Serum FSH levels (double antibody radioimmunoassay); assay type: in vivo, mice
Excerpt: as §1, with “[…]; […]” for “other groups received daily s.c. injection of COMPOUND I and three different doses; 0.25, 05, 1.0 μg COMPOUND I per animal in 100 μl of 0.3% hydroxy”
Blood from both control and COMPOUND I-treated groups was collected by cardiac puncture directly before harvesting tissues. Serum concentrations of estradiol were measured by double antibody radioimmunoassay using commercially available reagents (Diagnostic Products Corp., Los Angeles, Calif.). […] FSH levels were measured using a standard double antibody radioimmunoassay. […] Differences in mean estradiol or FSH levels were compared, and significance was determined using paired Student's t-test.

Structure (SMILES): N#Cc1ccc(C(c2ccc(C#N)cc2)n2cncn2)cc1 [COMPOUND I]
- circulating estrogen (estradiol) level (estradiol; 0.25 μg per day per animal): 12.1 pg/mL
- circulating estrogen (estradiol) level (estradiol; 0.5 μg per day per animal): 12.5 pg/mL
- circulating levels of estradiol (estradiol; dose of 0.5 μg per day per animal as printed in last sentence of b103): 2 pg/mL
- level of PCNA, reduction [1]: 50%
- effect on histo-morphological features of the uterus and ovary ([2]; 0.25 μg per day per animal): no effect
- effect on histo-morphological features of the uterus and ovary ([2]; 0.5 μg per day per animal): no effect
- effect on histo-morphological features of the uterus and ovary ([2]; 1 μg per day per animal): no effect
- effect on normal endocrinological functions [3]: affected some normal endocrinological functions
- decrease in expression of the uterine marker lactoferrin vs control (lactoferrin, ER, and PR): 1.8 fold
- circulating FSH level ([4]; 0.5 μg, no significant difference to control): 200 ng/mL
- circulating FSH level ([4]; 5.0 μg, difference to control very significant (paired Student's t-test)): 480 ng/mL
